Results: US20240239792A1, “MODULATORS OF BCL-2 OR BCL-2/BCL-XL AND USES THEREOF” (APPICINE THERAPEUTICS (HK) LIMITED, priority 2021, published 2024)

Key:
[1] = target: T1, BCL-2 (Homo sapiens, UniProt P10415); assay: HTRF BCL-2/BAK assay (Cisbio); assay type: binding; settings: recombinant human Tag1-BCL-2 2 nM, Tag2-BAK 10 nM
T1 construct: purchased Cisbio 63ADK000CB01PEG
Protocol: (§1) Then the pre-mixed anti-Tag1-Eu^3+ and anti-tag2-XL665 were added to the plate and further incubated at room temperature for another 2 hours. The signals ([…]) were read on Envision 2104 instrument. The IC50 for each compound was derived from fitting the signal of 665/615 nM to the increasing compound concentration.
(§2) Using the above assays, the following compounds were tested.

[2] = target: T2, BCL-XL (Homo sapiens, UniProt Q07817); assay: HTRF BCL-XL/BAK assay (Cisbio); assay type: binding; settings: recombinant human Tag1-BCL-XL 2 nM, Tag2-BAK 5 nM
T2 construct: purchased Cisbio 63ADK000CB04PEG
Protocol: as §1, §2

[3] = target: T3, CYP2C9 (Homo sapiens, UniProt P11712); assay: CYP2C9 activity assay in human liver microsomes, substrate diclofenac; assay type: in vitro ADME; settings: probe diclofenac, test compound 1 μM, 37° C. 10 min, read-out: Inhibition rate (%) against CYP2C9 Enzyme
T3 construct: from tissue; host or cells: human liver microsomes
Protocol: In this assay, several exemplary compounds of the present disclosure and a control compound (Venetoclax) were used as the test compounds. In general, the assay was conducted by the following steps: • 1. The solution of test compound, human liver microsomes solution, and substrate (diclofenac) solution were mixed in a 96-well assay plate on ice to, and the final concentration of each test compound is 1 μM; • 2. The 96-well assay plate and NADPH solution were pre-incubated at 37° C. for 5 minutes; • 3. NADPH solution was added to into the assay plates to initiate the reaction; • 4. The assay plate was incubated at 37° C. for 10 min; • 5. The reaction was stopped; and after quenching, a portion of the supernatant was taken from each well for LC/MS analysis; • 6. The inhibition rate was calculated by the following equation: Inhibition rate (%)=(1−Valuetest/Valuecontrol)×100%, where Valuetest refers to the LC/MS data obtained from wells with test compounds and Valuecontrol refers to the LC/MS data obtained from wells without test compound.

[4] = system: DOHH2 cells; assay: CellTiter-Glo cell proliferation assay, DOHH2 cells; assay type: cell-based; settings: Homo sapiens, DOHH-2, 72 hours
Summary of the method: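 DOHH2 cells seeded in DMEM + 10% FBS, exposed to serially diluted compound for 72 h at 37 °C, 5% CO2. Viability read by CellTiter-Glo luminescence; GI50 calculated.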

T2 sequence (Q07817 whole entry): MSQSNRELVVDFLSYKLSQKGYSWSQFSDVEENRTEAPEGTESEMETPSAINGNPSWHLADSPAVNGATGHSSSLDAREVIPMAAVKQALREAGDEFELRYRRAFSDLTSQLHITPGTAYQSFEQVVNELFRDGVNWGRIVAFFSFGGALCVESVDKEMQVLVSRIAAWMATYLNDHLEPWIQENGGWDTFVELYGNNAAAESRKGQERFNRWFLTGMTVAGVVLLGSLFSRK
T3 sequence (P11712 whole entry): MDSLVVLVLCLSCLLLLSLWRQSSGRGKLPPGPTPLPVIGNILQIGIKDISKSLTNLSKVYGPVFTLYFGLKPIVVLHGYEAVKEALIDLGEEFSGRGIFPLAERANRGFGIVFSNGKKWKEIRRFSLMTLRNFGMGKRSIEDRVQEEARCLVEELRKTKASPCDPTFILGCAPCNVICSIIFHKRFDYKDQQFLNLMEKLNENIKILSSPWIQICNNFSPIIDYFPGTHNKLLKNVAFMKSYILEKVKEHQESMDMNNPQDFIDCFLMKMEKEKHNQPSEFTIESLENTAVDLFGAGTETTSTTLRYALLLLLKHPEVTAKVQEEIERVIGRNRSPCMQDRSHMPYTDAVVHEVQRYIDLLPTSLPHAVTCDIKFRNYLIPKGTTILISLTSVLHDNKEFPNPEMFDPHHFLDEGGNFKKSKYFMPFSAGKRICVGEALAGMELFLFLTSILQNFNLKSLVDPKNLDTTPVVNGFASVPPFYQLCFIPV
T1 sequence (P10415 whole entry): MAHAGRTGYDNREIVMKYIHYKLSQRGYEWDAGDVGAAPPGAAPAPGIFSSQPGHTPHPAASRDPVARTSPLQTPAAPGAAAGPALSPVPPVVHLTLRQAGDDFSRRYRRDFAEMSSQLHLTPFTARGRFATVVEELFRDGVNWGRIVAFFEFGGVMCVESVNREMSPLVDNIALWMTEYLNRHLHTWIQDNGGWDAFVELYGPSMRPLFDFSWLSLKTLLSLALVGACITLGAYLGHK

Compound	IC50 [1] [nM]	IC50 [2] [nM]	inhibition at 10 min, 1 µM [3] [%]	GI50 [4] [nM]
CN1CCC2(CC1)CC(CNc1ccc(S(=O)(=O)NC(=O)c3ccc(N4CCN([C@@H]5CCCCc6c(Cl)cccc65)CC4)cc3Oc3cnc4[nH]ccc4c3)cc1[N+](=O)[O-])C2 [Compound 108, (R)-2-((1H-pyrrolo[2,3-b]pyridin-5-yl)oxy)-4-(4-(1-chloro-6,7,8,9-tetrahydro-5H-benzo[7]annulen-5-yl)piperazin-1-yl)-N-((4-(((7-methyl-7-azaspiro[3.5]nonan-2-yl)methyl)amino)-3-nitrophenyl)sulfonyl)benzamide]	< 20	< 20	< 30	< 50
CN1CC2CC1CN2CCNc1ccc(S(=O)(=O)NC(=O)c2ccc(N3CCN(C4CCCCc5c(Cl)cccc54)CC3)cc2Oc2cnc3[nH]ccc3c2)cc1[N+](=O)[O-] (centres unmarked) [Compound 43, 2-((1H-pyrrolo[2,3-b]pyridin-5-yl)oxy)-4-(4-(1-chloro-6,7,8,9-tetrahydro-5H-benzo[7]annulen-5-yl)piperazin-1-yl)-N-((4-((2-(5-methyl-2,5-diazabicyclo[2.2.1]heptan-2-yl)ethyl)amino)-3-nitrophenyl)sulfonyl)benzamide]	< 20	< 20	–	50 to 500
O=C(NS(=O)(=O)c1ccc(NCC2CCOCC2)c([N+](=O)[O-])c1)c1ccc(N2CCN(C3CCCCc4c(-c5cn[nH]c5)cccc43)CC2)cc1Oc1cnc2[nH]ccc2c1 (centres unmarked) [Compound 52, 4-(4-(1-(1H-pyrazol-4-yl)-6,7,8,9-tetrahydro-5H-benzo[7]annulen-5-yl)piperazin-1-yl)-2-((1H-pyrrolo[2,3-b]pyridin-5-yl)oxy)-N-((3-nitro-4-(((tetrahydro-2H-pyran-4-yl)methyl)amino)phenyl)sulfonyl)benzamide]	20 to 200	> 2000	–	> 5000
O=C(NS(=O)(=O)c1ccc(NCC2CCOCC2)c([N+](=O)[O-])c1)c1ccc(N2CCN(C3CCCCc4c(-c5cccnc5)cccc43)CC2)cc1Oc1cnc2[nH]ccc2c1 (centres unmarked) [Compound 49, 2-((1H-pyrrolo[2,3-b]pyridin-5-yl)oxy)-N-((3-nitro-4-(((tetrahydro-2H-pyran-4-yl)methyl)amino)phenyl)sulfonyl)-4-(4-(1-(pyridin-3-yl)-6,7,8,9-tetrahydro-5H-benzo[7]annulen-5-yl)piperazin-1-yl)benzamide]	< 20	200 to 2000	–	500 to 5000
CP(C)(=O)c1cccc2c1CCCCC2N1CCN(c2ccc(C(=O)NS(=O)(=O)c3ccc(NCC4CCOCC4)c([N+](=O)[O-])c3)c(Oc3cnc4[nH]ccc4c3)c2)CC1 (centres unmarked) [Compound 63, 2-((1H-pyrrolo[2,3-b]pyridin-5-yl)oxy)-4-(4-(1-(dimethylphosphoryl)-6,7,8,9-tetrahydro-5H-benzo[7]annulen-5-yl)piperazin-1-yl)-N-((3-nitro-4-(((tetrahydro-2H-pyran-4-yl)methyl)amino)phenyl)sulfonyl)benzamide]	20 to 200	> 2000	–	> 5000
O=C(NS(=O)(=O)c1ccc(NCC2COC3OCCC23)c([N+](=O)[O-])c1)c1ccc(N2CCN(C3CCCCc4c(Cl)cccc43)CC2)cc1Oc1cnc2[nH]ccc2c1 (centres unmarked) [Compound 64, 2-((1H-pyrrolo[2,3-b]pyridin-5-yl)oxy)-4-(4-(1-chloro-6,7,8,9-tetrahydro-5H-benzo[7]annulen-5-yl)piperazin-1-yl)-N-((4-(((hexahydrofuro[2,3-b]furan-3-yl)methyl)amino)-3-nitrophenyl)sulfonyl)benzamide]	< 20	20 to 200	–	50 to 500
O=C(NS(=O)(=O)c1ccc(NCCN2CCC3(CC2)COC3)c([N+](=O)[O-])c1)c1ccc(N2CCN(C3CCCCc4c(Cl)cccc43)CC2)cc1Oc1cnc2[nH]ccc2c1 (centres unmarked) [Compound 42, 2-((1H-pyrrolo[2,3-b]pyridin-5-yl)oxy)-N-((4-((2-(2-oxa-7-azaspiro[3.5]nonan-7-yl)ethyl)amino)-3-nitrophenyl)sulfonyl)-4-(4-(1-chloro-6,7,8,9-tetrahydro-5H-benzo[7]annulen-5-yl)piperazin-1-yl)benzamide]	< 20	< 20	–	50 to 500

More lines, main results first:

IC50 [1] [nM]	IC50 [2] [nM]	inhibition at 10 min, 1 µM [3] [%]	Compound	GI50 [4] [nM]
–	–	49	CC1(C)CCC(CN2CCN(c3ccc(C(=O)NS(=O)(=O)c4ccc(NCC5CCOCC5)c([N+](=O)[O-])c4)c(Oc4cnc5[nH]ccc5c4)c3)CC2)=C(c2ccc(Cl)cc2)C1 [Venetoclax, reference compound]	–
< 20	–	< 30	O=C(NS(=O)(=O)c1ccc(NCC2CCOCC2)c([N+](=O)[O-])c1)c1ccc(N2CCC3(CC2)CN(C2CCCc4ccccc42)C3)cc1Oc1cnc2[nH]ccc2c1 (centres unmarked) [Compound 94, 2-((1H-pyrrolo[2,3-b]pyridin-5-yl)oxy)-N-((3-nitro-4-(((tetrahydro-2H-pyran-4-yl)methyl)amino)phenyl)sulfonyl)-4-(2-(1,2,3,4-tetrahydronaphthalen-1-yl)-2,7-diazaspiro[3.5]nonan-7-yl)benzamide]	500 to 5000
< 20	20 to 200	–	O=C(NS(=O)(=O)c1ccc(NCCN2CCC3(CC2)COC3)c([N+](=O)[O-])c1)c1ccc(N2CCN([C@@H]3CCCCc4c(Br)cc(F)cc43)CC2)cc1Oc1cnc2[nH]ccc2c1 [Compound 80, (R)-2-((1H-pyrrolo[2,3-b]pyridin-5-yl)oxy)-N-((4-((2-(2-oxa-7-azaspiro[3.5]nonan-7-yl)ethyl)amino)-3-nitrophenyl)sulfonyl)-4-(4-(1-bromo-3-fluoro-6,7,8,9-tetrahydro-5H-benzo[7]annulen-5-yl)piperazin-1-yl)benzamide]	500 to 5000
< 20	< 20	–	O=C(NS(=O)(=O)c1ccc(NCC2(O)CCN(C3COC3)CC2)c([N+](=O)[O-])c1)c1ccc(N2CCN([C@@H]3CCCCc4c(Cl)cccc43)CC2)cc1Oc1cnc2[nH]ccc2c1 [Compound 85, (R)-2-((1H-pyrrolo[2,3-b]pyridin-5-yl)oxy)-4-(4-(1-chloro-6,7,8,9-tetrahydro-5H-benzo[7]annulen-5-yl)piperazin-1-yl)-N-((4-(((4-hydroxy-1-(oxetan-3-yl)piperidin-4-yl)methyl)amino)-3-nitrophenyl)sulfonyl)benzamide]	< 50
< 20	< 20	–	O=C(NS(=O)(=O)c1ccc(NCC2CC3(CCN(CC4CC4)CC3)C2)c([N+](=O)[O-])c1)c1ccc(N2CCN([C@@H]3CCCCc4c(Cl)cccc43)CC2)cc1Oc1cnc2[nH]ccc2c1 [Compound 129, (R)-2-((1H-pyrrolo[2,3-b]pyridin-5-yl)oxy)-4-(4-(1-chloro-6,7,8,9-tetrahydro-5H-benzo[7]annulen-5-yl)piperazin-1-yl)-N-((4-(((7-(cyclopropylmethyl)-7-azaspiro[3.5]nonan-2-yl)methyl)amino)-3-nitrophenyl)sulfonyl)benzamide]	< 50
20 to 200	200 to 2000	–	CC(C)(C)OC(=O)NCCN1CCC2(CC1)CC(CNc1ccc(S(=O)(=O)NC(=O)c3ccc(N4CCN([C@@H]5CCCCc6c(Cl)cccc65)CC4)cc3)cc1[N+](=O)[O-])C2 [Compound 119, tert-butyl (R)-(2-(2-(((4-(N-(4-(4-(1-chloro-6,7,8,9-tetrahydro-5H-benzo[7]annulen-5-yl)piperazin-1-yl)benzoyl)sulfamoyl)-2-nitrophenyl)amino)methyl)-7-azaspiro[3.5]nonan-7-yl)ethyl)carbamate]	50 to 500
< 20	< 20	–	CN1CCC(CNc2ccc(S(=O)(=O)NC(=O)c3ccc(N4CCN([C@@H]5CCCCc6c(Cl)cc(F)cc65)CC4)cc3Oc3cnc4[nH]ccc4c3)cc2[N+](=O)[O-])CC1 [Compound 86, (R)-2-((1H-pyrrolo[2,3-b]pyridin-5-yl)oxy)-4-(4-(1-chloro-3-fluoro-6,7,8,9-tetrahydro-5H-benzo[7]annulen-5-yl)piperazin-1-yl)-N-((4-(((1-methylpiperidin-4-yl)methyl)amino)-3-nitrophenyl)sulfonyl)benzamide]	< 50
< 20	20 to 200	–	O=C(NS(=O)(=O)c1ccc(NCC2CC3(COC3)C2)c([N+](=O)[O-])c1)c1ccc(N2CCN([C@@H]3CCCCc4c(Br)cccc43)CC2)cc1Oc1cnc2[nH]ccc2c1 [Compound 77, (R)-2-((1H-pyrrolo[2,3-b]pyridin-5-yl)oxy)-N-((4-(((2-oxaspiro[3.3]heptan-6-yl)methyl)amino)-3-nitrophenyl)sulfonyl)-4-(4-(1-bromo-6,7,8,9-tetrahydro-5H-benzo[7]annulen-5-yl)piperazin-1-yl)benzamide]	< 50
